Patent US9211310B2, “Use of a Chinese medicine composition in preparing medicaments for treating secondary prevention of myocardial infarction” (TASLY PHARMACEUTICAL GROUP CO., LTD, priority 2010, dated 2015)

System: patients after acute myocardial infarction
Test: Life quality, Seattle Angina Questionnaire (SAQ), same clinical trial
Assay type: in vivo, human
Conditions: 9 months after treatment
Text: 3508 patients who were in accordance with the diagnostic standards of AMI for 28 days to 2 years and differentiated as Qi deficiency and blood stagnation syndrome by TCM were studied. 0.5 g Chinese medicine composition prepared by the method of EXAMPLE 1 (Coded as QSYQ) was administrated half an hour after meal, 3 times per day.
There were 19 questions in the Seattle angina questionnaire (SAQ), including 5 parts: physical limitation (PL), anginal stability (AS), anginal frequency (AF), treatment satisfaction (TS) and disease perception (DP). After being given necessary explanation by doctors, the questions were answered independently by patients.
They included the overall survival time, angina pectoris score, TCM symptom score and life quality score, where angina pectoris score, TCM symptom score and life quality score were evaluated at randomization, in 1st, 3rd, 6th, 9th, 12th month after treatment and 18th month after follow-up.
All evaluation results of SAQ were described during the period of observation, and Wilcoxon rank sum test was used for inter-group comparison.
The evaluation results in the SAQ were depicted in different observations, and inter-group comparison was tested by Wilcoxon Rank-sum test.

In the case of `CC(=O)Oc1ccccc1C(=O)O` [Control group, aspirine], the “SAQ Question 1-4: Not limited, number of patients” value (FAS) was 797, the “SAQ Question 1-4: Not limited, percent of patients” value (FAS) was “(45.70%)” and the “SAQ Question 1-4: Other reasons, number of patients” value (FAS) was 10. For the same compound, the “SAQ Question 1-4: Other reasons, percent of patients” value (FAS) was “(0.57%)”, the “SAQ Question 1-4: Severely limited, number of patients” value (FAS) was 19 and the “SAQ Question 1-4: Severely limited, percent of patients” value (FAS) was “(1.09%)”. For the same compound, the “SAQ Question 1-4: Slightly limited, number of patients” value (FAS) was 569, the “SAQ Question 1-4: Slightly limited, percent of patients” value (FAS) was “(32.63%)” and the “SAQ Question 1-5: Mildly limited, number of patients” value (FAS) was 284. The “SAQ Question 1-5: Mildly limited, percent of patients” value (FAS) was “(16.29%)”, the “SAQ Question 1-5: Moderately limited, number of patients” value (FAS) was 103 and the “SAQ Question 1-5: Moderately limited, percent of patients” value (FAS) was “(5.91%)”. The “SAQ Question 1-5: Not limited, number of patients” value (FAS) was 825, the “SAQ Question 1-5: Not limited, percent of patients” value (FAS) was “(47.33%)” and the “SAQ Question 1-5: Other reasons, number of patients” value (FAS) was 11. For the same compound, the “SAQ Question 1-5: Other reasons, percent of patients” value (FAS) was “(0.63%)”, the “SAQ Question 1-5: Severely limited, number of patients” value (FAS) was 17 and the “SAQ Question 1-5: Severely limited, percent of patients” value (FAS) was “(0.98%)”. For the same compound, the “SAQ Question 1-5: Slightly limited, number of patients” value (FAS) was 503, the “SAQ Question 1-5: Slightly limited, percent of patients” value (FAS) was “(28.86%)” and the “SAQ Question 1-9: Mildly limited, % of cases” value (FAS) was “(19.38%)”. The “SAQ Question 1-9: Mildly limited, cases” value (FAS) was 332, the “SAQ Question 1-9: Moderately limited, % of cases” value (FAS) was “(20.61%)” and the “SAQ Question 1-9: Moderately limited, cases” value (FAS) was 353. For the same compound, the “SAQ Question 1-9: Not limited, % of cases” value (FAS) was “(3.91%)”, the “SAQ Question 1-9: Not limited, cases” value (FAS) was 67 and the “SAQ Question 1-9: Other reasons, % of cases” value (FAS) was “(5.60%)”. For the same compound, the “SAQ Question 1-9: Other reasons, cases” value (FAS) was 96, the “SAQ Question 1-9: Severely limited, % of cases” value (FAS) was “(33.39%)” and the “SAQ Question 1-9: Severely limited, cases” value (FAS) was 572. For the same compound, the “SAQ Question 1-9: Slightly limited, % of cases” value (FAS) was “(17.10%)”, the “SAQ Question 1-9: Slightly limited, cases” value (FAS) was 293 and the “SAQ 2nd question: Clearly increased, % of cases” value (PP) was “(0.63%)”. The “SAQ 2nd question: Clearly increased, cases” value (PP) was 9, the “SAQ 2nd question: Clearly reduced, % of cases” value (PP) was “(26.01%)” and the “SAQ 2nd question: Clearly reduced, cases” value (PP) was 373. For the same compound, the “SAQ 2nd question: Same, % of cases” value (PP) was “(34.94%)”, the “SAQ 2nd question: Same, cases” value (PP) was 501 and the “SAQ 2nd question: Slightly increased, % of cases” value (PP) was “(3.21%)”. For the same compound, the “SAQ 2nd question: Slightly increased, cases” value (PP) was 46, the “SAQ 2nd question: Slightly reduced, % of cases” value (PP) was “(35.22%)” and the “SAQ 2nd question: Slightly reduced, cases” value (PP) was 505. The “SAQ 3rd question: 1-2 times per week, % of cases” value (PP) was “(35.22%)”, the “SAQ 3rd question: 1-2 times per week, cases” value (PP) was 505 and the “SAQ 3rd question: 1-3 times per day, % of cases” value (PP) was “(3.21%)”. For the same compound, the “SAQ 3rd question: 1-3 times per day, cases” value (PP) was 46, the “SAQ 3rd question: <1 time per week, % of cases” value (PP) was “(26.01%)” and the “SAQ 3rd question: <1 time per week, cases” value (PP) was 373. The “SAQ 3rd question: No onset, % of cases” value (PP) was “(0.00%)”, the “SAQ 3rd question: No onset, cases” value (PP) was 0 and the “SAQ 3rd question: ≧3 times per week, % of cases” value (PP) was “(34.94%)”. The “SAQ 3rd question: ≧3 times per week, cases” value (PP) was 501, the “SAQ 3rd question: ≧4 times per day, % of cases” value (PP) was “(0.63%)” and the “SAQ 3rd question: ≧4 times per day, cases” value (PP) was 9. The “SAQ Question 1-3: Mildly limited, number of patients” value (PP) was 37, the “SAQ Question 1-3: Mildly limited, percent of patients” value (PP) was “(2.57%)” and the “SAQ Question 1-3: Moderately limited, number of patients” value (PP) was 10. For the same compound, the “SAQ Question 1-3: Moderately limited, percent of patients” value (PP) was “(0.70%)”, the “SAQ Question 1-3: Not limited, number of patients” value (PP) was 1187 and the “SAQ Question 1-3: Not limited, percent of patients” value (PP) was “(82.60%)”. For the same compound, the “SAQ Question 1-3: Other reasons, number of patients” value (PP) was 6, the “SAQ Question 1-3: Other reasons, percent of patients” value (PP) was “(0.42%)” and the “SAQ Question 1-3: Severely limited, number of patients” value (PP) was 1. The “SAQ Question 1-3: Severely limited, percent of patients” value (PP) was “(0.07%)”, the “SAQ Question 1-3: Slightly limited, number of patients” value (PP) was 196 and the “SAQ Question 1-3: Slightly limited, percent of patients” value (PP) was “(13.64%)”. For the same compound, the “SAQ Question 1-4: Mildly limited, number of patients” value (PP) was 208, the “SAQ Question 1-4: Mildly limited, percent of patients” value (PP) was “(14.49%)” and the “SAQ Question 1-4: Moderately limited, number of patients” value (PP) was 63. For the same compound, the “SAQ Question 1-4: Moderately limited, percent of patients” value (PP) was “(4.39%)”, the “SAQ Question 1-4: Not limited, number of patients” value (PP) was 673 and the “SAQ Question 1-4: Not limited, percent of patients” value (PP) was “(46.90%)”. The “SAQ Question 1-4: Other reasons, number of patients” value (PP) was 10, the “SAQ Question 1-4: Other reasons, percent of patients” value (PP) was “(0.70%)” and the “SAQ Question 1-4: Severely limited, number of patients” value (PP) was 9. For the same compound, the “SAQ Question 1-4: Severely limited, percent of patients” value (PP) was “(0.63%)” and the “SAQ Question 1-4: Slightly limited, number of patients” value (PP) was 472.
